Measured values published in US4762820A, “Therapeutic treatment for congestive heart failure” (Trustees of Boston University, priority 1986, dated 1988).
“And” between values parts separate entries of the source, which are not always exact repeats. Equal entries are not always repeated.

Experiments:
arginine vasopressin [1] = assay: Change in mean arterial pressure after AVP injection in rats, before and after nasal administration of the selective antagonist; assay type: in vivo, Wistar rats
Method: On the day before experimental testing, each rat was placed under ether anesthesia, and the right iliac artery and the right external jugular vein were catherized with PE-50 tubing. On the day following surgery, with the animal remaining unrestrained, the mean arterial pressure was monitored via a Hewlett-Packard 1280C transducer and a 7702B Recorder.
A vasopressin injection was prepared by diluting commercially obtained Pitressin at 20 U/ml concentration with 5% dextrose in water (hereinafter "D5W") to yield a sterile 20 mU/ml final concentration. […] All intravenous injections of vasopressin were flushed through using an additional volume comprising 0.2-0.3 ml of D5W.
Each experimental animal was tested in two stages: initially, two 0.1 ml injections each containing 2.0 millipressor units of arginine vasopressin were given through the venous catheter over a ten minute period and the individual changes in mean arterial pressure recorded. This stage identified each of the test animals as being susceptible to the physiological effects of vasopressin. The second stage of the experiment comprised release of 0.1 ml containing 250 ug of the selective antagonist onto the nasal mucosae of the rat via a PE-50 catheter which had been inserted into one of the nostrils to a depth of about four millimeters. This administration of the antagonist as a nasal spray onto the mucosae of the nose was followed by repeated injection of 0.1 ml volumes, each containing 2.0 millipressor units of arginine vasopressin, at 10, 20, 30, 60, and 120 minutes after the administration of the selective antagonist. The change in mean arterial pressure was recorded at each of these intervals after each injection of the vasopressin.

arginine vasopressin [2] = settings: 0.5 mg i.v.; exogenous AVP 20 mU/kg; cited from earlier work

Compound | mean change in arterial pressure (arginine vasopressin [1]; 2.0 millipressor units AVP i.v., mean of the three test animals) | Changes in Mean Arterial Pressure After AVP Injection Alone (arginine vasopressin [1]; individual rats, 2.0 millipressor units AVP i.v., no antagonist) | effect of repeated 2.0 mU vasopressin injection after nasal spraying (arginine vasopressin [1]; 250 ug nasal, for at least the two hours of the test) | Changes in Mean Arterial Pressure After Antagonist Adm. + AVP Injections, 10' (arginine vasopressin [1]; individual rats, 250 ug antagonist onto nasal mucosae, 2.0 mU AVP i.v. 10 min later) | Changes in Mean Arterial Pressure After Antagonist Adm. + AVP Injections, 20' (arginine vasopressin [1]; individual rats, 250 ug antagonist onto nasal mucosae, 2.0 mU AVP i.v. 20 min later) | Changes in Mean Arterial Pressure After Antagonist Adm. + AVP Injections, 30' (arginine vasopressin [1]; individual rats, 250 ug antagonist onto nasal mucosae, 2.0 mU AVP i.v. 30 min later) | Changes in Mean Arterial Pressure After Antagonist Adm. + AVP Injections, 60' (arginine vasopressin [1]; individual rats, 250 ug antagonist onto nasal mucosae, 2.0 mU AVP i.v. 60 min later) | Changes in Mean Arterial Pressure After Antagonist Adm. + AVP Injections, 120' (arginine vasopressin [1]; individual rats, 250 ug antagonist onto nasal mucosae, 2.0 mU AVP i.v. 120 min later) | inhibition of the blood pressure response to exogenous arginine vasopressin (arginine vasopressin [2]) [%]
NC(=O)CC[C@@H]1NC(=O)[C@H](Cc2ccccc2)NC(=O)[C@H](Cc2ccc(O)cc2)NC(=O)[C@@H](N)CSSC[C@@H](C(=O)N2CCC[C@H]2C(=O)N[C@@H](CCCN=C(N)N)C(=O)NCC(N)=O)NC(=O)[C@H](CC(N)=O)NC1=O [AVP, arginine vasopressin, reference compound] | about 35 mmHg | +37.5 mm Hg and +38.5 mm Hg and +29.0 mm Hg | – | – | – | – | – | – | –
[1-(β-mercapto-β,β-cyclopentamethylenepropionic acid), 2-(O-methyl)tyrosine]arginine vasopressin [AVP Antagonist] | – | – | no significant effect | 0 mm Hg and +5 mm Hg | 0 mm Hg and +5 mm Hg | 0 mm Hg and +5 mm Hg | 0 mm Hg and +5 mm Hg | 0 mm Hg and +5 mm Hg | 80
